Where two headings read alike, the source gives them in different places. Ends that are not written are not given here.
Tests used:
USP20 DUSP2 domain [1] = target: T1, USP20 DUSP2 domain (Homo sapiens, UniProt Q9Y2K6); assay: FP-monitored affinity measurements, USP20 DUSP2; format: binding
T1 construct: USP20_DUSP2; Q9Y2K6; DUSP2; 776; 894; 6xHis-GST (N, cleaved yes); made in house; host or cells: Escherichia coli BL21-Gold (DE3)
Procedure: (§1) Proteins were expressed in Escherichia coli (E.coli) BL21-Gold (DE3) bacteria. The cDNAs encoding N-terminal 6-histidine-glutathione S-transferase tagged (6xHis-GST), 6xHis-tagged or GST-tagged protein domains in pETM33, pETM11, pGEX6P1 expression vectors respectively, were obtained from Genescript or kindly provided by MRC-PPU (Suppl. Data 1) The bacteria were transformed with the plasmid and grew at 37 °C in 2YT (5 g/L NaCl, 16 g/L tryptone and 10 g/L yeast extract) supplemented with Kanamycin (30 μg/mL) until reaching an OD600 of 0.7. Protein expression was induced with 0.3 mM isopropyl β-D-1 thiogalactopyranoside (IPTG) for 18 h at 18 °C while shaking. For zinc-finger domains, 50 μM of ZnSO4 was added during expression. The bacterial cultures were pelleted for 15 minutes at 4000 x g at 4 °C and stored at −20 °C until purification. The pellets were resuspended in lysis buffer (1× phosphate-buffered saline (PBS), 0.5 % Triton-X, 5 mM MgCl2, 10 μg/mL lysozyme, cOmplete^TM EDTA-free protease inhibitor cocktail (Roche), 10 μg/mL DNAseI) and incubated for 1 h shaking at 4 °C. […] The supernatant was incubated with glutathione (GSH) Sepharose (Cytiva) or Ni2+ Sepharose (Cytiva) for 1 h at 4 °C while shaking. The beads with the bound protein were washed with 1x PBS and eluted with 10 mM reduced glutathione in 50 mM Tris pH 8.0. For fluorescence polarization experiments, the proteins were not eluted from the beads, and the 6xHis-GST tag was cleaved overnight on GSH Sepharose beads at 4 °C while shaking with PreScission Protease in cleavage buffer (50 mM Tris pH 7.5, 150 mM NaCl, 1 mM DTT). The sample containing the cleaved domain was separated from the tag and protease and buffer-exchanged to 50 mM sodium phosphate buffer pH 7.4 with 1 mM DTT using a PD-10 desalting column (Cytiva). The purity and size of the proteins were analyzed by SDS-PAGE electrophoresis.
(§2) The measurements were performed at room temperature in a non-binding black half area 96-well plate (Corning) with a total volume of 50 μL per well. Peptides were obtained from GeneCust (France) with >95% purity. FITC-labeled peptides (N-terminally FITC-labeled without spacer and C-terminally amidated) were dissolved in dimethyl sulfoxide (DMSO), and unlabeled peptides (N-terminally acetylated and C-terminally amidated) were dissolved in 50 mM phosphate buffer pH 7.4. Saturation measurements were performed using a serial dilution of the protein domains in phosphate buffer (25 μL) and the addition of 10 nM FITC-labeled peptide (in phosphate buffer supplemented with 2 mM DTT) (25 μL). […] All measurements were performed in three technical replicates. The data were analyzed using GraphPad Prism version 9.2.0 for MacOS (GraphPad Software, San Diego, California USA, www.graphpad.com). The saturation curves were fitted to the quadratic equation, and the displacement curves were fitted to a sigmoidal dose-response equation as described previously.

USP33 DUSP2 domain [2] = target: T2, USP33 DUSP2 domain (Homo sapiens, UniProt Q8TEY7); assay: FP-monitored affinity measurements, USP33 DUSP2; format: binding
T2 construct: USP33_DUSP2; Q8TEY7; DUSP2; 806; 921; 6xHis-GST (N, cleaved yes); made in house; host or cells: Escherichia coli BL21-Gold (DE3)
T2 sequence (Q8TEY7 with tags, fused parts or gaps): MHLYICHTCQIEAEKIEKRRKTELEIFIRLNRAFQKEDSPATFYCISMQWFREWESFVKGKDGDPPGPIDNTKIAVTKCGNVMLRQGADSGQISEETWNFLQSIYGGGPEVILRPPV
Procedure: as §1, §2

USP20 DUSP2 domain [3] = target: T1, USP20 DUSP2 domain; assay: Peptide SPOT array, USP20 DUSP2; format: binding; settings: for Average: peptide SPOT array intensity minus background, mean of 2 replicas; for Average / Normalize to peptide with higher intensity %: sheet S5A; for Normalize to higher intensity (%) / Normalize to peptide with higher intensity %: peptide SPOT array; for Normalize to higher intensity (%): USP20 DUSP2, average normalised to the highest intensity (ARNTL2 = 100); for Normalize to peptide with higher intensity %: average normalized to the peptide with highest intensity (ARNTL2 = 100);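 on all read-outs here: GST-tagged domain probed overnight at 4 °C on peptides made on cellulose membranes, bound protein detected via HRP-coupled anti-GST antibody, spot intensity from image analysis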
Procedure: (§3) Peptides were synthesized on cellulose membranes with standard Fluoroenylmethylox-ycarbonyl (Fmoc) chemistry using a Multipep automated synthesizer at INTAVIS (Tübingen, Germany) or ordered from JPT (PepSpots). The membranes were activated with methanol for 5 min and washed three times for 5 min with TBST (50 mM Tris, 137 mM NaCl, 2.7 mM KCl, pH 8.0, 0.05% Tween-20). The membranes were incubated with blocking buffer (5% skim milk powder in TBST) for 2 h at room temperature while shaking. The membranes were incubated with the GST-tagged protein diluted at the desired concentration in blocking buffer and incubated overnight at 4 °C while shaking. The membrane was rinsed 3 times with TBST and incubated with HRP-conjugated anti-GST antibody (Cytiva, RPN1236; 1:3000 dilution) in blocking buffer for 1 h at 4 °C while shaking. […] The images were analyzed in Fiji (ImageJ2 version 2.9.0).

USP33 DUSP2 domain [4] = target: T2, USP33 DUSP2 domain; assay: Peptide SPOT array, USP33 DUSP2; format: binding; settings: average normalised to the highest intensity (CCDC88B = 100)
Procedure: as §3

FLAG-USP33 = assay: IP-MS of FLAG-USP33 and variants vs empty vector; format: cell-based, human; settings: IP-MS
Procedure: For transfection, 1x10^6 HEK293 cells were seeded in 10 cm dishes with DMEM, 10% FBS, 1% L-G (without antibiotic) medium, incubated at 37 °C, with 5 % CO2 for 24 h. Cells were transfected with a transfection mix containing […] of Opti-MEM (Thermo Fisher Scientific), 20 μL of PEI stock (1 mg/mL) and […] of the desired cDNA. For co-transfection, 2.5 μg of DNA of each plasmid was used. The mix was vortexed for 15 s and incubated at room temperature for 15–20 min. The transfection mix was added to the dish and gently mixed. Plates were incubated at 37 °C for 36–48 h before harvesting. For USP33 constructs, 5 μM Bortezomib (proteasome inhibitor) was added 4 hours before harvesting the cells.
FLAG fusion proteins were immunoprecipitated from HEK293 cells transfected with plasmids encoding the protein of interest using the anti-FLAG M2 affinity gel from Sigma-Aldrich. Cell pellets were lysed with 100–200 μL/per dish lysis buffer (Pierce RIPA buffer, 1X protease inhibitor (Roche), 50 unit/μL of Benzonase Nuclease) rotating at 4 °C for 30–45 min. […] The cell lysate was clarified by centrifugation at 17,000 x g, at 4 °C for 12 min, and the supernatant was transferred to a clean, pre-chilled low-binding Eppendorf tube. […] The IP samples were centrifuged at 6500 x g at 4 °C for 30 s. The supernatant containing the unbound proteins was transferred to a clean tube. The resin was washed three times with 500 μL of TBS, centrifuged at 6500 x g at 4 °C for 30 s. The bound FLAG fusion protein was eluted with 100 μL of 150 ng/μL 3X FLAG peptide (Sigma) in TBS and incubated in the cold room for 1 h or overnight. The tube was centrifuged at 6500 x g at 4 °C for 30 s; the eluted proteins were transferred to a clean tube. The eluted proteins were prepared for analysis by western blot or Mass Spectrometry.
Immunoprecipitation (IP) was carried out as described above; four technical replicates of each IP condition were performed, and the empty vector was used as a negative control. The eluted protein was processed following the Strap-micro protocol (Protifi). The IP elution containing 1–100 μg protein was 1:1 mixed with 2X lysis buffer (10% SDS, 100 mM TEAB pH 8.5). […] Samples were vortexed, mixed with 165 μL of 100 mM TEAB in 90% methanol, and passed through an S-Trap micro column at 4000 g for 30 s to trap the proteins. The column was washed with 150 μL of 100 mM TEAB in 90% methanol (at 4,000 x g for 30 seconds) three times. The S-Trap column was centrifuged again and transferred to a clean 2 mL tube for digestion with 20 μL of digestion buffer (1 μg trypsin per 10 μg sample in 50 mM TEAB), at 37 °C overnight in a thermomixer without shaking. The digested peptides were eluted with […] of 50 mM TEAB in water, […] of 0.2 % formic acid in water, and […] of 50 % acetonitrile in water, centrifuging at 4000 x g for 1 min each time. The three elutions were pooled in a low-binding tube, placed on dry ice until frozen, dried in a SpeedVac vacuum (Thermo Scientific), and proceeded with the LCMS analysis.
Eluted peptides were resuspended in water supplemented with 0.015% dodecyl maltoside and 0.1% formic acid and were injected on a Vanquish Neo UHPLC System operating in trap and elute mode coupled to an Orbitrap Astral Mass Spectrometer (Thermo Fisher Scientific). […] Eluted peptides were analyzed using data-independent acquisition mode on the mass spectrometer.
Peptides were searched against the Uniprot Swissprot Human database (released on 02/01/2023) supplemented with the USP20 and USP33 mutants using DiaNN (v1.9.0)[62] operating in library-free mode. Data filtering and statistical analysis were carried out in Python (v3.9.0) using the packages pandas, numpy, sklearn, scipy, rpy2, Plotnine, and Plotly and R (v4.4.3) using the package limma.
Protein groups identified with a single peptide or quantified in fewer than three replicates in at least 1 condition were filtered out. […]

USP20 zf-UBP domain = target: T3, USP20 zf-UBP domain (Homo sapiens, UniProt Q9Y2K6); assay: FP-monitored affinity measurements, USP20 zf-UBP; format: binding; settings: USP20_UBP; FP displacement by unlabelled peptide; read-out: KD
T3 construct: USP20_UBP; Q9Y2K6; zf-UBP; 99; 6xHis-GST (N, cleaved yes); made in house; host or cells: Escherichia coli BL21-Gold (DE3)
Procedure: The measurements were performed at room temperature in a non-binding black half area 96-well plate (Corning) with a total volume of 50 μL per well. […] All measurements were performed in three technical replicates. […] The saturation curves were fitted to the quadratic equation, and the displacement curves were fitted to a sigmoidal dose-response equation as described previously[68].

[5] = competitive FP: unlabeled peptide (N-acetylated, C-amidated) against protein with 10 nM FITC-labeled peptide, 50 mM phosphate pH 7.4, room temperature, technical triplicate, read-out: KD, USP20 DUSP2
[6] = competitive FP: unlabeled peptide (N-acetylated, C-amidated) against protein with 10 nM FITC-labeled peptide, 50 mM phosphate pH 7.4, room temperature, technical triplicate, read-out: KD, USP33 DUSP2
[7] = USP20_DUSP2, FP displacement by unlabelled peptide, read-out: KD
[8] = USP33_DUSP2, FP displacement by unlabelled peptide, read-out: KD

T1 sequence (Q9Y2K6 with tags, fused parts or gaps): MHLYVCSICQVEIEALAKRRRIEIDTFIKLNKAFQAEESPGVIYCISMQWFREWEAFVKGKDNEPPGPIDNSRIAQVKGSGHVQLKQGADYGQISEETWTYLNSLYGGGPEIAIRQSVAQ
T3 sequence (Q9Y2K6 4-99): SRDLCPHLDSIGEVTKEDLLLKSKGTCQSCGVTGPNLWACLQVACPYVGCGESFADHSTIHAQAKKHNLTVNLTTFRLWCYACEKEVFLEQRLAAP

Row | Compound | Kd (USP20 DUSP2 domain [1]; [7]) [µM] | Kd (USP33 DUSP2 domain [2]; [8]) [µM] | Average (USP20 DUSP2 domain [3]) | Normalize to higher intensity (%) (USP20 DUSP2 domain [3]) | Normalize to peptide with higher intensity % (USP20 DUSP2 domain [3]) [%] | Normalize to higher intensity (%) (USP33 DUSP2 domain [4]) | further results
1 | CC[C@H](C)[C@H](NC(=O)[C@H](Cc1ccc(O)cc1)NC(=O)[C@@H]1CCCN1)C(=O)N1CCC[C@H]1C(=O)N[C@@H](CCSC)C(=O)N[C@@H](CC(=O)O)C(=O)N[C@@H](CC(=O)O)C(=O)N[C@@H](CC(=O)O)C(=O)N[C@@H](C)C(=O)N[C@@H](CCC(N)=O)C(=O)N[C@@H](CC(C)C)C(=O)N[C@@H](CCCNC(=N)N)C(=O)N[C@@H](CO)C(=O)N[C@@H](Cc1ccccc1)C(=O)N[C@@H](CC(=O)O)C(=O)N[C@@H](CCC(N)=O)C(=O)N[C@@H](CC(C)C)C(=O)N[C@@H](CO)C(=O)O [F572A] |  |  |  |  |  |  | Kd (USP20 DUSP2 domain [1]; [5]): > 600 µM; Kd (USP33 DUSP2 domain [2]; [6]): > 900 µM
2 | CC[C@H](C)[C@H](NC(=O)[C@H](Cc1ccc(O)cc1)NC(=O)[C@@H]1CCCN1C(C)=O)C(=O)N1CCC[C@H]1C(=O)N[C@@H](CCSC)C(=O)N[C@@H](CC(=O)O)C(=O)N[C@@H](CC(=O)O)C(=O)N[C@@H](CC(=O)O)C(=O)N[C@@H](C)C(=O)N[C@@H](CCC(N)=O)C(=O)N[C@@H](CC(C)C)C(=O)N[C@@H](CCCNC(=N)N)C(=O)N[C@@H](CO)C(=O)N[C@@H](Cc1ccccc1)C(=O)N[C@@H](CC(=O)O)C(=O)N[C@@H](CCC(N)=O)C(=O)N[C@@H](CC(C)C)C(=O)N[C@@H](CO)C(N)=O [HIF1A_F572A] | ~589 | ~930 |  |  |  |  | 
3 | Ac-PYIPMDDDFQARSFDQLS-NH2 [HIF1A_L574A] | 89 | ~227 |  |  |  |  | 
4 | Ac-PYIPMDDKFQLRSFDQLS-NH2 [HIF1A_D571K] | 85 | ~145 |  |  |  |  | 
5 | Ac-PYIPMDGEDFQLSPICPE-NH2 [HIF2A] | ~235 | ~1180 |  |  |  |  | 
6 | Ac-PYIPMDKDFQLRSFDQLS-NH2 [HIF1A_D570K] | 18.8 |  |  |  |  |  | 
7 | Ac-SDDDLAWNIAPQGLQ-NH2 [GPR137B348-362] | 10.2 | ~228 | 1.607 | 0.8997 | 0.8997 | -9.797 | Kd (USP33 DUSP2 domain [2]; [6]): > 200 µM
8 | IPMDDDFQLRSFDQLS [HIF1A] | 18.7 | 1.5 | 35.4167 | 19.83 | 19.8322 | 69.9644 | 
9 | NBAS |  |  |  |  |  |  | log2_FC (FLAG-USP33; FLAG-USP33-ΔDUSP2 vs EV, comparison bh_2 Sample_Limma_ImpMedInt_USP33_DUSP2_domain/EV): 2.843; log2_FC (FLAG-USP33; FLAG-USP33-ΔUBP vs EV, comparison bh_2 Sample_Limma_ImpMedInt_USP33_UBP_domain/EV): 2.886; log2_FC (FLAG-USP33; FLAG-USP33 UBP mutant vs EV, comparison USP33_E86K_D90R/EV, Limma): 2.804
10 | PDVVDDFQLQHRHGPG [MFSD2B] | 44.7 | 0.75 | -6.828 | -3.824 | -3.824 | 51.523 | 
11 | PYIPMDGEDFQLSPICPE [HIF2A531-548] |  |  |  |  |  |  | Kd (USP20 DUSP2 domain [1]; [5]): > 200 µM; Kd (USP33 DUSP2 domain [2]; [6]): > 1000 µM
12 | QLEEELFQLRQGPAGL [CCDC88B] | 22.4 | 40.1 | 62.4217 | 34.95 | 34.9541 | 100 | 
13 | YAQSKTQLEVRPV [ROBO1] |  |  |  |  |  |  | Kd (USP20 zf-UBP domain): ~81.6 µM
